Values quoted from earlier work in patent US20190069585A1, “Compositions of micronutrients and phytochemicals for optimal human health” (priority 2017, published 2019).

Details: consumed orally by humans

**Q.** For N[C@@H](CCC(=O)N[C@@H](CS)C(=O)NCC(=O)O)C(=O)O [glutathione], which “plasma levels of glutathione” value is on record?
**A.** do not significantly increase
